Experimental data reported in ChEMBL document CHEMBL3045223, “Synthesis, nematicidal and antimicrobial properties of Bis-[4-methoxy-3-[3-(4-fluorophenyl)-6-(4-methylphenyl)-2(aryl)-tetrahydro-2H-pyrazolo[3,4-d]thiazol-5-yl]phenyl]methanes” (2009).
Values after ≈ are worked out from the molar mass of the structure shown. Active and inactive are the calls of the source. The rule behind the calls is not given here.

Assays:
Assay type in all cases: functional
[1] = test system: Chromobacterium violaceum; assay: Antibacterial activity against Chromobacterium violaceum MTCC 2656 assessed as inhibition zones at 300 ug/disk at 37 degC for 24 hr; details: MTCC 2656, 24 h, read-out: IZ
Klebsiella aerogenes [2] = assay: Antibacterial activity against Enterobacter aerogenes MTCC 39 assessed as growth arrest at 37 degC for 24 hr; details: MTCC 39, 24 h
Klebsiella aerogenes [3] = assay: Antibacterial activity against Enterobacter aerogenes MTCC 39 assessed as inhibition zones at 300 ug/disk at 37 degC for 24 hr; details: MTCC 39, 24 h, read-out: IZ
[4] = test system: Chromobacterium violaceum; assay: Antibacterial activity against Chromobacterium violaceum MTCC 2656 assessed as growth arrest at 37 degC for 24 hr; details: MTCC 2656, 24 h
Staphylococcus aureus [5] = assay: Antibacterial activity against Staphylococcus aureus MTCC 96 assessed as inhibition zones at 300 ug/disc at 37 degC for 24 hr; details: MTCC 96, 24 h, read-out: IZ
Candida albicans [6] = assay: Antifungal activity against Candida albicans ATCC 10231 assessed as growth inhibition at 37 degC for 48 hr; details: ATCC 10231, 48 h
Aspergillus fumigatus [7] = assay: Antifungal activity against Aspergillus fumigatus HIC 6094 assessed as growth inhibition at 37 degC for 48 hr
Trichophyton rubrum [8] = assay: Antifungal activity against Trichophyton rubrum IFO 9185 assessed as growth inhibition at 300 ug/disk at 37 degC for 48 hr; details: IFO 9185, 48 h, read-out: IZ
[9] = test system: Lysinibacillus sphaericus; assay: Antibacterial activity against Lysinibacillus sphaericus MTCC 11 assessed as inhibition zones at 300 ug/disk at 37 degC for 24 hr; details: MTCC 11, 24 h, read-out: IZ
[10] = test system: Lysinibacillus sphaericus; assay: Antibacterial activity against Lysinibacillus sphaericus MTCC 11 assessed as growth arrest at 37 degC for 24 hr; details: MTCC 11, 24 h
Pseudomonas aeruginosa [11] = assay: Antibacterial activity against Pseudomonas aeruginosa MTCC 741 assessed as inhibition zones at 300 ug/disk at 37 degC for 24 hr; details: MTCC 741, 24 h, read-out: IZ
Staphylococcus aureus [12] = assay: Antibacterial activity against Staphylococcus aureus MTCC 96 assessed as growth arrest at 37 degC for 24 hr; details: MTCC 96, 24 h
Bacillus subtilis [13] = assay: Antibacterial activity against Bacillus subtilis MTCC 441 assessed as growth arrest at 37 degC for 24 hr; details: MTCC 441, 24 h
Bacillus subtilis [14] = assay: Antibacterial activity against Bacillus subtilis MTCC 441 assessed as inhibition zones at 300 ug/disk at 37 degC for 24 hr; details: MTCC 441, 24 h, read-out: IZ
[15] = test system: Ditylenchus myceliophagus; assay: Nematicidal activity against Ditylenchus myceliophagus assessed as immobility; details: read-out: LD50 (the source's name)
Pseudomonas aeruginosa [16] = assay: Antibacterial activity against Pseudomonas aeruginosa MTCC 741 assessed as growth arrest at 37 degC for 24 hr; details: MTCC 741, 24 h
Caenorhabditis elegans = assay: Nematicidal activity against Caenorhabditis elegans assessed as immobility; details: read-out: LD50 (the source's name)
Trichophyton rubrum [17] = assay: Antifungal activity against Trichophyton rubrum IFO 9185 assessed as growth inhibition at 37 degC for 48 hr
[18] = test system: Trichophyton mentagrophytes; assay: Antifungal activity against Trichophyton mentagrophytes IFO 40996 assessed as growth inhibition at 300 ug/disc at 37 degC for 48 hr; details: for zone of inhibition at 300 µg/disc: IFO 40996, 48 h, read-out: IZ
[19] = test system: Trichophyton mentagrophytes; assay: Antifungal activity against Trichophyton mentagrophytes IFO 40996 assessed as growth inhibition at 37 degC for 48 hr
Aspergillus fumigatus [20] = assay: Antifungal activity against Aspergillus fumigatus HIC 6094 assessed as growth inhibition at 300 ug/disc at 37 degC for 48 hr; details: for zone of inhibition at 300 µg/disc: HIC 6094, 48 h, read-out: IZ
Candida albicans [21] = assay: Antifungal activity against Candida albicans ATCC 10231 assessed as growth inhibition at 300 ug/disk at 37 degC for 48 hr; details: for zone of inhibition at 300 µg/disc: ATCC 10231, 48 h, read-out: IZ

SMILES	zone of inhibition at 300 µg/disc [1] [mm]	MBC (Klebsiella aerogenes [2]) [µg/mL]	MIC (Klebsiella aerogenes [2]) [µg/mL]	zone of inhibition at 300 µg/disc (Klebsiella aerogenes [3]) [mm]	MBC [4] [µg/mL]	MIC [4] [µg/mL]	zone of inhibition at 300 µg/disc (Staphylococcus aureus [5]) [mm]	MBC (Candida albicans [6]) [µg/mL]	MIC (Candida albicans [6]) [µg/mL]	zone of inhibition at 300 µg/disc (Trichophyton rubrum [8]) [mm]	zone of inhibition at 300 µg/disc [9] [mm]	MBC [10] [µg/mL]	MIC [10] [µg/mL]	zone of inhibition at 300 µg/disc (Pseudomonas aeruginosa [11]) [mm]	MBC (Staphylococcus aureus [12]) [µg/mL]	MIC (Staphylococcus aureus [12]) [µg/mL]	MBC (Bacillus subtilis [13]) [µg/mL]	MIC (Bacillus subtilis [13]) [µg/mL]	zone of inhibition at 300 µg/disc (Bacillus subtilis [14]) [mm]	LC50 [15] [µg/mL]	other results
COc1ccc(Cc2ccc(OC)c(C3SC4C(=NN(c5ccc(Cl)cc5)C4c4ccc(F)cc4)N3c3ccc(Cl)cc3)c2)cc1C1SC2C(=NN(c3ccc(Cl)cc3)C2c2ccc(F)cc2)N1c1ccc(Cl)cc1 (stereo not drawn)	18	12.5 (≈ 11.2 µM)	12.5 (≈ 11.2 µM)	19	50 (≈ 44.9 µM)	25 (≈ 22.5 µM)	22	12.5 (≈ 11.2 µM)	12.5 (≈ 11.2 µM)	15	19	25 (≈ 22.5 µM)	6.25 (≈ 5.62 µM)	18	50 (≈ 44.9 µM)	12.5 (≈ 11.2 µM)	25 (≈ 22.5 µM)	12.5 (≈ 11.2 µM)	11	290 (≈ 261 µM)	MBC (Aspergillus fumigatus [7]; HIC 6094, 48 h): 25 µg/mL (≈ 22.5 µM); MIC (Aspergillus fumigatus [7]; HIC 6094, 48 h): 25 µg/mL (≈ 22.5 µM); MBC (Pseudomonas aeruginosa [16]): 50 µg/mL (≈ 44.9 µM); MIC (Pseudomonas aeruginosa [16]): 50 µg/mL (≈ 44.9 µM); LC50 (Caenorhabditis elegans): 380 µg/mL (≈ 341 µM); MBC (Trichophyton rubrum [17]; IFO 9185, 48 h): 12.5 µg/mL (≈ 11.2 µM); MIC (Trichophyton rubrum [17]; IFO 9185, 48 h): 12.5 µg/mL (≈ 11.2 µM); inhibition zone (IZ) [18]: inactive; MBC ([19]; IFO 40996, 48 h): 50 µg/mL (≈ 44.9 µM); MIC ([19]; IFO 40996, 48 h): 25 µg/mL (≈ 22.5 µM); inhibition zone (IZ) (Aspergillus fumigatus [20]): inactive; inhibition zone (IZ) (Candida albicans [21]): inactive
COc1ccc(N2N=C3C(SC(c4cc(Cc5ccc(OC)c(C6SC7C(=NN(c8ccc(OC)cc8)C7c7ccc(F)cc7)N6c6ccc(C)cc6)c5)ccc4OC)N3c3ccc(C)cc3)C2c2ccc(F)cc2)cc1 (stereo not drawn)	17	25 (≈ 23.5 µM)	25 (≈ 23.5 µM)	20	12.5 (≈ 11.8 µM)	6.25 (≈ 5.88 µM)	26	25 (≈ 23.5 µM)	25 (≈ 23.5 µM)	13	15	50 (≈ 47 µM)	50 (≈ 47 µM)	18	25 (≈ 23.5 µM)	25 (≈ 23.5 µM)	25 (≈ 23.5 µM)	25 (≈ 23.5 µM)	15	950 (≈ 893 µM)	MBC (Aspergillus fumigatus [7]; HIC 6094, 48 h): 50 µg/mL (≈ 47 µM); MIC (Aspergillus fumigatus [7]; HIC 6094, 48 h): 25 µg/mL (≈ 23.5 µM); MBC (Pseudomonas aeruginosa [16]): 25 µg/mL (≈ 23.5 µM); MIC (Pseudomonas aeruginosa [16]): 12.5 µg/mL (≈ 11.8 µM); LC50 (Caenorhabditis elegans): 870 µg/mL (≈ 818 µM); MBC (Trichophyton rubrum [17]; IFO 9185, 48 h): 12.5 µg/mL (≈ 11.8 µM); MIC (Trichophyton rubrum [17]; IFO 9185, 48 h): 12.5 µg/mL (≈ 11.8 µM); zone of inhibition at 300 µg/disc [18]: 12 mm; MBC ([19]; IFO 40996, 48 h): 25 µg/mL (≈ 23.5 µM); MIC ([19]; IFO 40996, 48 h): 12.5 µg/mL (≈ 11.8 µM); zone of inhibition at 300 µg/disc (Aspergillus fumigatus [20]): 15 mm; zone of inhibition at 300 µg/disc (Candida albicans [21]): 9 mm
COc1ccc(Cc2ccc(OC)c(C3SC4C(=NN(Cc5ccccc5)C4c4ccc(F)cc4)N3c3ccc([N+](=O)[O-])cc3)c2)cc1C1SC2C(=NN(Cc3ccccc3)C2c2ccc(F)cc2)N1c1ccc([N+](=O)[O-])cc1 (stereo not drawn)	13	25 (≈ 22.9 µM)	12.5 (≈ 11.4 µM)	19	12.5 (≈ 11.4 µM)	6.25 (≈ 5.72 µM)	19	25 (≈ 22.9 µM)	12.5 (≈ 11.4 µM)	11	21	50 (≈ 45.7 µM)	12.5 (≈ 11.4 µM)	10	50 (≈ 45.7 µM)	12.5 (≈ 11.4 µM)	12.5 (≈ 11.4 µM)	6.25 (≈ 5.72 µM)	15	190 (≈ 174 µM)	MBC (Aspergillus fumigatus [7]): inactive; MIC (Aspergillus fumigatus [7]): inactive; MBC (Pseudomonas aeruginosa [16]): 50 µg/mL (≈ 45.7 µM); MIC (Pseudomonas aeruginosa [16]): 12.5 µg/mL (≈ 11.4 µM); LC50 (Caenorhabditis elegans): 190 µg/mL (≈ 174 µM); MBC (Trichophyton rubrum [17]): inactive; MIC (Trichophyton rubrum [17]): inactive; zone of inhibition at 300 µg/disc [18]: 13 mm; MBC [19]: inactive; MIC [19]: inactive; zone of inhibition at 300 µg/disc (Aspergillus fumigatus [20]): 16 mm; zone of inhibition at 300 µg/disc (Candida albicans [21]): 19 mm
COc1ccc(Cc2ccc(OC)c(C3SC4C(=NN(C)C4c4ccc(F)cc4)N3c3ccc(Cl)cc3)c2)cc1C1SC2C(=NN(C)C2c2ccc(F)cc2)N1c1ccc(Cl)cc1 (stereo not drawn)	19	25 (≈ 27.2 µM)	12.5 (≈ 13.6 µM)	21	50 (≈ 54.4 µM)	12.5 (≈ 13.6 µM)	20	25 (≈ 27.2 µM)	12.5 (≈ 13.6 µM)	13	20	25 (≈ 27.2 µM)	12.5 (≈ 13.6 µM)	21	12.5 (≈ 13.6 µM)	12.5 (≈ 13.6 µM)	50 (≈ 54.4 µM)	12.5 (≈ 13.6 µM)	21	190 (≈ 207 µM)	MBC (Aspergillus fumigatus [7]; HIC 6094, 48 h): 50 µg/mL (≈ 54.4 µM); MIC (Aspergillus fumigatus [7]; HIC 6094, 48 h): 6.25 µg/mL (≈ 6.79 µM); MBC (Pseudomonas aeruginosa [16]): 25 µg/mL (≈ 27.2 µM); MIC (Pseudomonas aeruginosa [16]): 12.5 µg/mL (≈ 13.6 µM); LC50 (Caenorhabditis elegans): 210 µg/mL (≈ 228 µM); MBC (Trichophyton rubrum [17]; IFO 9185, 48 h): 25 µg/mL (≈ 27.2 µM); MIC (Trichophyton rubrum [17]; IFO 9185, 48 h): 6.25 µg/mL (≈ 6.79 µM); zone of inhibition at 300 µg/disc [18]: 16 mm; MBC [19]: inactive; MIC [19]: inactive; zone of inhibition at 300 µg/disc (Aspergillus fumigatus [20]): 15 mm; zone of inhibition at 300 µg/disc (Candida albicans [21]): 18 mm
